Assay [1] addresses T1, human IDO (IDO1-expressing HEK293 cells) (Homo sapiens, UniProt P14902).
T1 construct: expressed in transfected cells
The assay can be described thus: Cell based kynurenine assay, IDO1-expressing HEK293 cell clones. The conditions noted are these: IDO1-expressing HEK293 cells, geometric mean, read-out: HEK293 IDO1 Kynurenine GMean IC50 (μM) (Cellular Assay). A digest of the protocol: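 Supernatant kynurenine was measured after 24 h exposure of stably transfected HEK293 cells (human IDO1 or TDO, 2.5×10^4/well) to serially diluted compound. Percent inhibition used 0.2% DMSO cell wells as high and media-only wells as low controls; IC50 fitted by nonlinear regression.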

The target in assay [2] is T2, Human Tryptophan 2,3-dioxygenase (TDO) (Homo sapiens, UniProt P48775).
T2 construct: His tag (N); made in house; host or cells: E. coli
The assay can be described thus: Human TDO enzymatic assay (kynurenine level). Format: biochemical. The conditions noted are these: 1 nM TDO, 350 μM L-Trp; geometric mean; read-out: TDO GMean: IC50 (μM) (Biochemical Assay). A digest of the protocol:
(§1)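 Reactions were stopped with TCA, converting N-formylkynurenine to kynurenine for quantitation, with IC50 by nonlinear regression. IDO: 6 nM enzyme, 10 μM L-Trp, 20 min RT. TDO: 1 nM enzyme, 350 μM L-Trp, 70 min RT, both in pH 6.5 buffer.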

The target of assay [3] is T3, human TDO (TDO-expressing HEK293 cells) (Homo sapiens, UniProt P48775).
T3 construct: expressed in transfected cells
In words: Cell based kynurenine assay, TDO-expressing HEK293 cell clones. The conditions noted are these: TDO-expressing HEK293 cells, geometric mean, read-out: HEK293 TDO Kynurenine GMean IC50 (μM) (Cellular Assay). As for the experimental part:
Determine Inhibitor Activity Against IDO or TDO in Cell Based Kynurenine Assay
IDO1-expressing or TDO-expressing HEK293 cell clones are generated upon stable transfection of plasmids expressing human IDO or human TDO under the control of CMV promoter. Cells are selected in DMEM media supplemented with 10% fetal bovine serum and 1 mg/ml G418 at 37° C. in a humidified incubator supplied with 5% CO2. The assays are performed as follows.
Cells were seeded in a 96 well plate in 50 μL of culture media at a density of 2.5×10^4 per well. Serial dilutions of compounds (in total volume of 50 μL culture media) are added into cells. 4 wells containing 0.2% DMSO treated cells serve as high controls and 4 wells containing media only with 0.2% DMSO serve as low controls. After 24 hours of incubation, the supernatant was transferred to a 384 well reaction plate and the kynurenine level determined. The percentage inhibition at individual concentrations relative to high and low controls is calculated. The data is analyzed by using nonlinear regression to generate IC50 values.

The target of assay [4] is T4, Human Indoleamine 2,3-dioxygenase (IDO) (Homo sapiens, UniProt P14902).
T4 construct: His tag (N); made in house; host or cells: E. coli
In words: Human IDO enzymatic assay (kynurenine level). Format: biochemical. Particulars: 6 nM IDO, 10 μM L-Trp; geometric mean; read-out: IDO1 GMean: IC50 (μM) (Biochemical Assay). A digest of the protocol:
as §1

Where two headings read alike, the source gives them in different places.

In patent publication US10508085B2, “Compounds and methods for IDO and TDO modulation, and indications therefor” (Plexxikon Inc., priority 2016, dated 2019) one finds IC50 data, which are given here for 20 compounds.

In general, IC50 refers to the concentration at which inhibition is half-maximal.

T3 sequence (P48775 whole entry): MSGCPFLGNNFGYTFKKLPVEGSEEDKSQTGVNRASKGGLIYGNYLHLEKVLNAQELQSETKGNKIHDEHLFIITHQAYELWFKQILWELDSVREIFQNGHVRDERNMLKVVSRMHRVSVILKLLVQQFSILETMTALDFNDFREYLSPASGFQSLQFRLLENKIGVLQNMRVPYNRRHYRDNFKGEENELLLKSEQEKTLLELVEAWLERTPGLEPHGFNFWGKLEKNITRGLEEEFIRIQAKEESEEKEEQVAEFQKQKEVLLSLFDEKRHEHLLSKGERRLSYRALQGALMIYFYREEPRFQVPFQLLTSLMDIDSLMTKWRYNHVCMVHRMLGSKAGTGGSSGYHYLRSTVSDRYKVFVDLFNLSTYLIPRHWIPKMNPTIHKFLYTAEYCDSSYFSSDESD
T2 sequence (P48775 whole entry): as above
T1 sequence (P14902 whole entry): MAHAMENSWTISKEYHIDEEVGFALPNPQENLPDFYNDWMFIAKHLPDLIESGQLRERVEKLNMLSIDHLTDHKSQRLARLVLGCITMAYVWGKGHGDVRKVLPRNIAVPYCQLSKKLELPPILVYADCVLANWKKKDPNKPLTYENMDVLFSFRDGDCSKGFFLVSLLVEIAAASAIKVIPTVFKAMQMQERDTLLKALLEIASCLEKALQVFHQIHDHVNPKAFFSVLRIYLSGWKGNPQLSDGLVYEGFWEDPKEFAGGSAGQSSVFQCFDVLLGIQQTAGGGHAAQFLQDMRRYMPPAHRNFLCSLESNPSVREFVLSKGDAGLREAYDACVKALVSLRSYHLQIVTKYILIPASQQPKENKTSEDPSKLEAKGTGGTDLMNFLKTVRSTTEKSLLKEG
T4 sequence (P14902 whole entry): as above

As for `CC(C)(C1CCN(C(=O)CN2CCOCC2)CC1)[C@H](O)c1cc(Cl)cc2cn[nH]c12` [Compound P-0501, (S)-1-(4-(1-(5-chloro-1H-indazol-7-yl)-1-hydroxy-2-methylpropan-2-yl)piperidin-1-yl)-2-morpholinoethan-1-one], the IC50 in assay [1] (24 hours), in assay [2], in assay [3] (24 hours) and in assay [4] was 0.0001 to 10 µM in each case.
Regarding `CC(C)(C1CCN(C(=O)NC2CCN(S(C)(=O)=O)CC2)CC1)C(O)c1cc(Cl)cc2cn[nH]c12` (centres unmarked) [Compound P-0450, 4-(1-(5-chloro-1H-indazol-7-yl)-1-hydroxy-2-methylpropan-2-yl)-N-(1-(methylsulfonyl)piperidin-4-yl)piperidine-1-carboxamide], the 50% inhibitory concentration (IC50) in assay [1] (24 hours), in assay [2], in assay [3] (24 hours) and in assay [4] was 0.0001 to 10 µM in each case.
Consider `CC(C)(C1CCN(C(=O)NCC(F)(F)F)CC1)C(O)c1cc(Cl)cc2cn[nH]c12` (centres unmarked) [Compound P-0175, 4-(1-(5-chloro-1H-indazol-7-yl)-1-hydroxy-2-methylpropan-2-yl)-N-(2,2,2-trifluoroethyl)piperidine-1-carboxamide], for which the 50% inhibitory concentration (IC50) in assay [1] (24 hours incubation), in assay [2], in assay [3] (24 hours incubation) and in assay [4] was 0.0001 to 10 µM in each case.
As to `CCC(C)(CC)C(O)c1cc(Cl)cc2cn[nH]c12` (centres unmarked) [Compound P-0255, 1-(5-chloro-1H-indazol-7-yl)-2-ethyl-2-methylbutan-1-ol], the 50% inhibitory concentration (IC50) in assay [1] (24 hours incubation), in assay [2], in assay [3] (24 hours incubation) and in assay [4] was 0.0001 to 10 µM in each case.
In the case of `CC(C)(C1CCN(C(=O)Nc2ccccc2C(F)(F)F)CC1)[C@@H](O)c1cc(Cl)cc2cn[nH]c12` [Compound P-0437, (R)-4-(1-(5-chloro-1H-indazol-7-yl)-1-hydroxy-2-methylpropan-2-yl)-N-(2-(trifluoromethyl)phenyl)piperidine-1-carboxamide], the half-maximal inhibitory concentration (IC50) was greater than 10 µM in assay [1] (24 hours), 0.0001 to 10 µM in assay [2], greater than 10 µM in assay [3] (24 hours) and 0.0001 to 10 µM in assay [4].
With `CC(C)(C)OC(=O)N1CCC(C(F)(F)C(O)c2cc(Cl)cc3cn[nH]c23)CC1` (centres unmarked) [Compound P-0469, tert-butyl 4-(2-(5-chloro-1H-indazol-7-yl)-1,1-difluoro-2-hydroxyethyl) piperidine-1-carboxylate], the IC50 in assay [1] (24 hours), in assay [2], in assay [3] (24 hours) and in assay [4] was 0.0001 to 10 µM each time.
As for `CC(C)(C)OC(=O)N1CCC(C(F)(F)[C@H](O)c2cc(Cl)cc3cn[nH]c23)CC1` [Compound P-0516, tert-butyl (R)-4-(2-(5-chloro-1H-indazol-7-yl)-1,1-difluoro-2-hydroxyethyl) piperidine-1-carboxylate], the concentration for half-maximal inhibition (IC50) in assay [1] (24 hours), in assay [2], in assay [3] (24 hours) and in assay [4] was 0.0001 to 10 µM each time.
On to `COC(=O)N1CCC(C(C)(C)[C@H](O)c2cc(Cl)cc3cn[nH]c23)CC1` [Compound P-0540, methyl (S)-4-(1-(5-chloro-1H-indazol-7-yl)-1-hydroxy-2-methylpropan-2-yl)piperidine-1-carboxylate], for which the concentration for half-maximal inhibition (IC50) in assay [1] (24 hours), in assay [2], in assay [3] (24 hours) and in assay [4] was 0.0001 to 10 µM in each case.
In the case of `COCC(=O)N1CCC(C(C)(C)C(O)c2cc(Cl)cc3cn[nH]c23)CC1` (centres unmarked) [Compound P-0414, 1-(4-(1-(5-chloro-1H-indazol-7-yl)-1-hydroxy-2-methylpropan-2-yl)piperidin-1-yl)-2-methoxyethan-1-one], the half-maximal inhibitory concentration (IC50) in assay [1] (24 hours), in assay [2], in assay [3] (24 hours) and in assay [4] was 0.0001 to 10 µM each time.
Take `O=C(C1CCC1)N1CCC(C(F)(F)C(O)c2c(F)c(Cl)cc3cn[nH]c23)CC1` (centres unmarked) [Compound P-0409, (4-(2-(5-chloro-6-fluoro-1H-indazol-7-yl)-1,1-difluoro-2-hydroxyethyl)piperidin-1-yl)(cyclobutyl) methanone]: the concentration for half-maximal inhibition (IC50) in assay [1] (24 hours), in assay [2], in assay [3] (24 hours) and in assay [4] was 0.0001 to 10 µM throughout.
Take `N#CC1CC=C(c2cc(Cl)cc3cn[nH]c23)CC1` (stereo not drawn) [Compound P-0105, 4-(5-chloro-1H-indazol-7-yl)cyclohex-3-ene-l-carbonitrile]: the concentration for half-maximal inhibition (IC50) in assay [1] (24 hours incubation), in assay [2], in assay [3] (24 hours incubation) and in assay [4] was 0.0001 to 10 µM in each case.
Turning to `OC(c1cc(Cl)cc2cn[nH]c12)C1(C(F)F)CCC1` (centres unmarked) [Compound P-0194, (5-chloro-1H-indazol-7-yl)(1-(difluoromethyl)cyclobutyl)methanol], the IC50 in assay [1] (24 hours incubation), in assay [2], in assay [3] (24 hours incubation) and in assay [4] was 0.0001 to 10 µM throughout.
With `COCCNC(=O)N1CCC(C(C)(C)[C@@H](O)c2cc(Cl)cc3cn[nH]c23)CC1` [Compound P-0425, (R)-4-(1-(5-chloro-1H-indazol-7-yl)-1-hydroxy-2-methylpropan-2-yl)-N-(2-methoxyethyl) piperidine-1-carboxamide], the half-maximal inhibitory concentration (IC50) in assay [1] (24 hours), in assay [2], in assay [3] (24 hours) and in assay [4] was 0.0001 to 10 µM each time.
With `CC(C)(C1CCN(C(=O)NCCN2CCCS2(=O)=O)CC1)C(O)c1cc(Cl)cc2cn[nH]c12` (centres unmarked) [Compound P-0492, 4-(1-(5-chloro-1H-indazol-7-yl)-1-hydroxy-2-methylpropan-2-yl)-N-(2-(1,1-dioxidoisothiazolidin-2-yl)ethyl)piperidine-1-carboxamide], the 50% inhibitory concentration (IC50) in assay [1] (24 hours), in assay [2], in assay [3] (24 hours) and in assay [4] was 0.0001 to 10 µM in each case.
As to `NC(=O)N1CCC2(CC1)CC(O)(c1cc(Cl)cc3cn[nH]c13)C2` [Compound P-0346, 2-(5-chloro-1H-indazol-7-yl)-2-hydroxy-7-azaspiro[3.5] nonane-7-carboxamide], the concentration for half-maximal inhibition (IC50) in assay [1] (24 hours incubation), in assay [2], in assay [3] (24 hours incubation) and in assay [4] was 0.0001 to 10 µM each time.
In the case of `CC1(C(O)c2cc(Cl)cc3[nH]ncc23)CCCCC1` (centres unmarked) [Compound P-0145, (6-chloro-1H-indazol-4-yl)(1-methylcyclohexyl)methanol], the IC50 in assay [1] (24 hours incubation) was greater than 10 µM; in assay [2], 0.0001 to 10 µM; in assay [3] (24 hours incubation), 0.0001 to 10 µM; in assay [4], 0.0001 to 10 µM.
In the case of `O=S(=O)(C1CC1)N1CCC2(CC1)CC(O)(c1cc(Cl)cc3cn[nH]c13)C2` [Compound P-0035, 2-(5-chloro-1H-indazol-7-yl)-7-(cyclopropylsulfonyl)-7-azaspiro[3.5]nonan-2-ol], the IC50 in assay [1] (24 hours incubation) was greater than 10 µM; in assay [2], 0.0001 to 10 µM; in assay [3] (24 hours incubation), 0.0001 to 10 µM; in assay [4], 0.0001 to 10 µM.
`OC(c1cccc2cncn12)C1CCC(F)(F)CC1` (centres unmarked) [Compound P-0081, (4,4-difluorocyclohexyl)(imidazo[1,5-a]pyridin-5-yl)methanol]: the IC50 in assay [1] (24 hours incubation) is greater than 10 µM; in assay [2] it was 0.0001 to 10 µM; in assay [3] (24 hours incubation) it was greater than 10 µM; in assay [4], 0.0001 to 10 µM.
`CC(C)(C1CCN(C(=O)NS(=O)(=O)c2ccccc2)CC1)C(O)c1cc(Cl)cc2cn[nH]c12` (centres unmarked) [Compound P-0353, 4-(1-(5-chloro-1H-indazol-7-yl)-1-hydroxy-2-methylpropan-2-yl)-N-(phenylsulfonyl) piperidine-1-carboxamide]: the IC50 in assay [1] (24 hours incubation), in assay [2], in assay [3] (24 hours incubation) and in assay [4] was 0.0001 to 10 µM throughout.
With `OC1(c2cc(Cl)cc3[nH]ncc23)CC2(CCC2)C1` [Compound P-0336, 2-(6-chloro-1H-indazol-4-yl)spiro[3.3] heptan-2-ol], the IC50 is greater than 10 µM in assay [1] (24 hours incubation), 0.0001 to 10 µM in assay [2], 0.0001 to 10 µM in assay [3] (24 hours incubation) and 10 to 100 µM in assay [4].
